Measurements taken from patent US20050209278A1, “Piperidinyl- and piperazinyl-sulfonylmethyl hydroxamic acids and their use as protease inhibitors” (priority 2002, published 2005).

Molecular target: T1, MMP-14 (Homo sapiens, UniProt P50281)
T1 construct: The catalytic domain enzyme was expressed in E. coli inclusion bodies, solubilized in urea; made in house
Experiment: In vitro MMP inhibition, IC50 determination (fluorogenic substrate I)
Format: biochemical
Settings: value in parentheses; read-out: MMP-14 (IC-50)

Row | Structure (SMILES) | IC50 [µM]
1 | CCCCOc1ccc(N2CCN(S(=O)(=O)C3(C(=O)NO)CCN(C(=O)CCC)CC3)CC2)cc1 [Example 290] | 3.8

Same assay, conditions: value in parenthesis; read-out: MMP-14 (IC-50)

Row | Structure (SMILES) | IC50 [µM]
2 | CCOCCCc1ccc(N2CCN(S(=O)(=O)C3(C(=O)NO)CCN(CCOC)CC3)CC2)cc1 [Example 179] | 3.62
3 | COCCCc1ccc(N2CCN(S(=O)(=O)C3(C(=O)NO)CCN(CCOC)CC3)CC2)cc1 [Example 180] | 5.56
4 | COCCN1CCC(C(=O)NO)(S(=O)(=O)N2CCN(c3ccc(CC4CCCCC4)cc3)CC2)CC1 [Example 181] | > 10
5 | COCCN1CCC(C(=O)NO)(S(=O)(=O)N2CCN(c3ccc(CCC4CCCC4)cc3)CC2)CC1 [Example 182] | 7.85
6 | COCCN1CCC(C(=O)NO)(S(=O)(=O)N2CCN(c3ccc(CC4CCC4)cc3)CC2)CC1 [Example 183] | 2.04
7 | CCOc1ccc(N2CCN(S(=O)(=O)C3(C(=O)NO)CCN(CCOC)CC3)CC2)cc1F [Example 184] | 2.4
8 | CCCOc1ccc(N2CCN(S(=O)(=O)C3(C(=O)NO)CCN(CCOC)CC3)CC2)cc1F [Example 185] | > 10
9 | COCCN1CCC(C(=O)NO)(S(=O)(=O)N2CCN(c3ccc(C#N)cc3)CC2)CC1 [Example 186] | 7.48
10 | CCc1cnc(N2CCN(S(=O)(=O)C3(C(=O)NO)CCN(CCOC)CC3)CC2)nc1 [Example 187] | > 10
11 | CCC(CC)Cc1ccc(N2CCN(S(=O)(=O)C3(C(=O)NO)CCN(CCOC)CC3)CC2)cc1 [Example 188] | > 10
